{
  "source": "patent US12091425B2",
  "about": "(AMGEN INC., priority 2016, dated 2024)",
  "data": [
    {"molecular_target": "T1, Mcl-1/Bim interaction, recombinant human Mcl-1 (171-327) (Homo sapiens, UniProt Q07820)", "T1 construct": "made in house", "T1 sequence (Q07820 171-327)": "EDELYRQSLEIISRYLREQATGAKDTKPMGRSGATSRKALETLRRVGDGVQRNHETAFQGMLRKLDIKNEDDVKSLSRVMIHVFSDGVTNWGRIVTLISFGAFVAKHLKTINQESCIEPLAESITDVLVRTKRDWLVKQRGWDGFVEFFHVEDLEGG", "test": "Cell free Mcl-1: Bim Affinity Assay (Mcl-1 HTRF)", "assay_type": "binding", "conditions": "TR-FRET, 0.1 nM Mcl-1 (171-327), 0.05 nM biotin-Bim (51-76)", "method": "(§1) Cell free Mcl-1: Bim Affinity Assay (Mcl-1 HTRF)\n(§2) The inhibition of the Mcl-1/Bim interaction was measured using a time-resolved fluorescence resonance energy transfer (TR-FRET) assay. […] A biotinylated peptide derived from human Bim (residues 51-76) was purchased from CPC Scientific (San Jose, CA). The TR-FRET assay was conducted in a 384-well white OptiPlatem (PerkinElmer, Waltham, MA) in a total volume of 40 μL. […] The reaction plates were further incubated overnight and then were read on an Envision® multimode reader (PerkinElmer). […] The IC50 values of test compounds were determined from duplicate data by analyzing competition curves using a four-parameter sigmoidal model in GraphPad Prism (GraphPad Software, San Diego, CA) or in Genedata Screener® (Genedata, Basel, Switzerland).", "units": {"IC50": "nM"}, "values": [
      {"smiles": "O=C1NS(=O)(=O)CCCCCS(=O)(=O)C2CCC2CN2C[C@@]3(CCCc4cc(Cl)ccc43)COc3ccc1cc32", "note": "(mixture of isomers) [Example 196]", "IC50": 22.2},
      {"smiles": "CC(=O)N1C/C=C/CS(=O)(=O)NC(=O)c2ccc3c(c2)N(C[C@@H]2CC[C@H]2C1)C[C@@]1(CCCc2cc(Cl)ccc21)CO3.CC(=O)N1C/C=C\\CS(=O)(=O)NC(=O)c2ccc3c(c2)N(C[C@@H]2CC[C@H]2C1)C[C@@]1(CCCc2cc(Cl)ccc21)CO3", "note": "(mixture of isomers) [Example 371, (1S,3′R,6′R,10′E)-8′-acetyl-6-chloro-3,4-dihydro-2H,15′H-spiro[naphthalene-1,22′-[20]oxa[13]thia[1,8,14]triazatetracyclo[14.7.2.0^3,6.0^19,24]pentacosa[10,16,18,24]tetraen]-15′-one 13′,13′-dioxide and (1S,3′R,6′R,10′Z)-8′-acetyl-6-chloro-3,4-dihydro-2H,15′H-spiro[naphthalene-1,22′-[20]oxa[13]thia[1,8,14]triazatetracyclo[14.7.2.0^3,6.0^19,24]pentacosa[10,16,18,24]tetraen]-15′-one 13′,13′-dioxide]", "IC50": 20.8},
      {"smiles": "CC[C@@H]1CC/C=C/[C@H](OCCO[C@H]2CCCCO2)[C@@H]2CC[C@H]2CN2C[C@@]3(CCCc4cc(Cl)ccc43)COc3ccc(cc32)C(=O)NS1(=O)=O", "note": "(mixture of isomers) [Example 969]", "IC50": 2.91},
      {"smiles": "CCC1CCC=CC(OC(C)C(=O)N(C)C)C2CCC2CN2CC3(CCCc4cc(Cl)ccc43)COc3ccc(cc32)C(=O)NS1(=O)=O", "note": "(mixture of isomers) [Example 985]", "IC50": 1.46},
      {"smiles": "CCN1CC/C=C\\[C@H](O)[C@@H]2CC[C@H]2CN2C[C@@]3(CCCc4cc(Cl)ccc43)COc3ccc(cc32)C(=O)NS1(=O)=O", "note": "(single isomer, unassigned) [Example 30]", "IC50": 1.92},
      {"smiles": "CO[C@H]1/C=C/CCNS(=O)(=O)NC(=O)c2ccc3c(c2)N(C[C@@H]2CC[C@H]21)C[C@@]1(CCCc2cc(Cl)ccc21)CO3", "note": "(single isomer, unassigned) [Example 46]", "IC50": 0.367},
      {"smiles": "O=C1NS(=O)(=O)C/C=C/CNC(=O)[C@@H]2CC[C@H]2CN2C[C@@]3(CCCc4cc(Cl)ccc43)COc3ccc1cc32", "note": "(single isomer, unassigned) [Example 97, (1S,3′R,6′R,10′E)-6-chloro-3,4-dihydro-2H,7′H,15′H-spiro[naphthalene-1,22′-[20]oxa[13]thia[1,8,14]triazatetracyclo[14.7.2.0^3,6.0^19,24]pentacosa[10,16,18,24]tetraen]-7′,15′-dione 13′,13′-dioxide or (1S,3′R,6′R,10′Z)-6-chloro-3,4-dihydro-2H,7′H,15′H-spiro[naphthalene-1,22′-[20]oxa[13]thia[1,8,14]triazatetracyclo[14.7.2.0^3,6.0^19,24]pentacosa[10,16,18,24]tetraen]-7′,15′-dione 13′,13′-dioxide]", "IC50": 12.6},
      {"smiles": "O=C1NS(=O)(=O)C2CCCC(CCC(O)C3CCC3CN3CC4(CCCc5cc(Cl)ccc54)COc4ccc1cc43)C2", "note": "(single isomer, unassigned) [Example 106]", "IC50": 16.9},
      {"smiles": "C[C@@H]1CC/C=C/[C@H](O)[C@]2(C)CC[C@H]2CN2C[C@@]3(CCCc4cc(Cl)ccc43)COc3ccc(cc32)C(=O)NS1(=O)=O", "note": "(single isomer, unassigned) [Example 116]", "IC50": 0.856},
      {"smiles": "C[C@@H]1CC/C=C/[C@H](O)[C@]2(C)CC[C@H]2CN2C[C@@]3(CCCc4cc(Cl)ccc43)COc3ccc(cc32)C(=O)NS1(=O)=O", "note": "(single isomer, unassigned) [Example 118]", "IC50": 34.9},
      {"smiles": "C[C@]12CC[C@H]1CN1C[C@@]3(CCCc4cc(Cl)ccc43)COc3ccc(cc31)C(=O)NS(=O)(=O)CCCCC[C@@H]2O", "note": "(single isomer, unassigned) [Example 121]", "IC50": 12.2},
      {"smiles": "C[C@]12CC[C@H]1CN1C[C@@]3(CCCc4cc(Cl)ccc43)COc3ccc(cc31)C(=O)NS(=O)(=O)CCCCC[C@@H]2O", "note": "(single isomer, unassigned) [Example 122]", "IC50": 7.17},
      {"smiles": "C[C@]12CC[C@H]1CN1C[C@@]3(CCCc4cc(Cl)ccc43)COc3ccc(cc31)C(=O)NS(=O)(=O)CCCCC[C@@H]2O", "note": "(single isomer, unassigned) [Example 123]", "IC50": 4.3},
      {"smiles": "N#C[C@@H]1CC/C=C\\[C@H](O)[C@@H]2CC[C@H]2CN2C[C@@]3(CCCc4cc(Cl)ccc43)COc3ccc(cc32)C(=O)NS1(=O)=O", "note": "(single isomer, unassigned) [Example 153]", "IC50": 1.22},
      {"smiles": "CC[C@@H]1CC[C@@H](O)/C=C/[C@@H]2CC[C@H]2CN2C[C@@]3(CCCc4cc(Cl)ccc43)COc3ccc(cc32)C(=O)NS1(=O)=O", "note": "(single isomer, unassigned) [Example 198]", "IC50": 3.24},
      {"smiles": "O=C1NS(=O)(=O)[C@H]2C[C@@H](O)C[C@@H]2C/C=C/[C@H](O)[C@@H]2CC[C@H]2CN2C[C@@]3(CCCc4cc(Cl)ccc43)COc3ccc1cc32", "note": "(single isomer, unassigned) [Example 336]", "IC50": 1.51},
      {"smiles": "CC(=O)N1C[C@@H]2C/C=C/[C@H](O)[C@@H]3CC[C@H]3CN3C[C@@]4(CCCc5cc(Cl)ccc54)COc4ccc(cc43)C(=O)NS(=O)(=O)[C@H]2C1", "note": "(single isomer, unassigned) [Example 339]", "IC50": 2.71}
    ]},
    {"molecular_target": "T1, Mcl-1/Bim interaction, recombinant human Mcl-1 (171-327)", "test": "Cell free Mcl-1: Bim Affinity Assay (Mcl-1 HTRF)", "assay_type": "binding", "conditions": "cell free Mcl-1:Bim TR-FRET, recombinant human Mcl-1 (171-327)", "method": "as §1, §2", "units": {"IC50": "nM"}, "values": [
      {"smiles": "O=C1NS(=O)(=O)C[C@@H](CO)C/C=C/C[C@H](O)[C@@H]2CC[C@H]2CN2C[C@@]3(CCCc4cc(Cl)ccc43)COc3ccc1cc32.O=C1NS(=O)(=O)C[C@H](CO)C/C=C/C[C@H](O)[C@@H]2CC[C@H]2CN2C[C@@]3(CCCc4cc(Cl)ccc43)COc3ccc1cc32", "note": "(mixture of isomers) [Example 710]", "IC50": 25.6},
      {"smiles": "O=C1NS(=O)(=O)CCC=CC(O)C2CCC2CN2CC3(CCCc4cc(Cl)ccc43)COc3ccc1cc32", "note": "(mixture of isomers) [Example 776, (1S,3′R,6′R,7′S,8′E)-6-chloro-7′-hydroxy-3,4-dihydro-2H,14′H-spiro[naphthalene-1,21′-[19]oxa[12]thia[1,13]diazatetracyclo [13.7.2.0^3,6.0^18,23]tetracosa[8,15,17,23]tetraen]-14′-one 12′,12′-dioxide and (1S,3′R,6′R,7′S,8′Z)-6-chloro-7′-hydroxy-3,4-dihydro-2H,14′H-spiro[naphthalene-1,21′-[19]oxa[12]thia[1,13]diazatetracyclo[13.7.2.0^3,6.0^18,23]tetracosa[8,15,17,23]tetraen]-14′-one 12′,12′-dioxide]", "IC50": 2.71},
      {"smiles": "O=C1NS(=O)(=O)C[C@@H]2C[C@@H]2CC[C@H](O)[C@@H]2CC[C@H]2CN2C[C@@]3(CCCc4cc(Cl)ccc43)COc3ccc1cc32.O=C1NS(=O)(=O)C[C@H]2C[C@H]2CC[C@H](O)[C@@H]2CC[C@H]2CN2C[C@@]3(CCCc4cc(Cl)ccc43)COc3ccc1cc32", "note": "(mixture of isomers) [Example 787]", "IC50": 21.4},
      {"smiles": "O=C1NS(=O)(=O)CCCCCC(=NO)C2CCC2CN2CC3(CCCc4cc(Cl)ccc43)COc3ccc1cc32", "note": "(mixture of isomers) [Example 932, (1S,3′R,6′R,7′Z)-6-chloro-3,4-dihydro-2H,7′H,15′H-spiro[naphthalene-1,22′-[20]oxa[13]thia[1,14]diazatetracyclo[14.7.2.0^3,6.0^19,24]pentacosa [16,18,24]triene]-7,15′-dione 7-OXIME 13′,13′-dioxide and (1S,3′R,6′R,7′E)-6-chloro-3,4-dihydro-2H,7′H,15′H-spiro[naphthalene-1,22′-[20]oxa[13]thia[1,14]diazatetracyclo[14.7.2.0^3,6.0^19,24]pentacosa [16,18,24]triene]-7′,15′-dione 7-OXIME 13′,13′-dioxide]", "IC50": 3.69}
    ]}
  ]
}
